≈ marks a conversion by molar mass, not a printed value.
Legend:
A498 = experiment: Cytotoxicity against human A498 cells; format: functional
NCI-H23 = experiment: cells; conditions: Homo sapiens
Description: Cytotoxicity against human NCI-H23 cells

NCI-H322M = experiment: Cytotoxicity against human NCI-H322M cells; format: functional
SNB-19 = experiment: Cytotoxicity against human SNB19 cells; format: functional
SF-268 = experiment: Cytotoxicity against human SF268 cells; format: functional
COLO 205 = experiment: Cytotoxicity against human COLO205 cells; format: functional
CAKI-1 = experiment: Cytotoxicity against human Caki1 cells; format: functional
[1] = Cytotoxicity against human LXFL 529L cells; format: functional
OVCAR-5 = experiment: Cytotoxicity against human OVCAR5 cells; format: functional
SK-MEL-28 = experiment: Cytotoxicity against human SK-MEL-28 cells; format: functional
HCT-116 = experiment: Cytotoxicity against human HCT116 cells; format: functional
UACC-257 = experiment: Cytotoxicity against human UACC257 cells; format: functional
TK-10 = experiment: Cytotoxicity against human TK10 cells; format: functional
KM-20L2 = experiment: Cytotoxicity against human KM20L2 cells; format: functional
NCI-H522 = experiment: Cytotoxicity against human NCI-H522 cells; format: functional
SR = experiment: Cytotoxicity against human SR cells; format: functional, cell-based
HOP-62 = experiment: Cytotoxicity against human HOP62 cells; format: functional
HOP-18 = experiment: Cytotoxicity against human HOP18 cells; format: functional
NCI-H226 = experiment: Cytotoxicity against human NCI-H226 cells; format: functional
NCI-H460 = experiment: Cytotoxicity against human NCI-H460 cells; format: functional
HCC 2998 = experiment: Cytotoxicity against human HCC2998 cells; format: functional
SNB-78 = experiment: Cytotoxicity against human SNB78 cells; format: functional
U-251 = experiment: Cytotoxicity against human U251 cells; format: functional
XF498 = experiment: Cytotoxicity against human XF498 cells; format: functional
DMS-114 = experiment: Cytotoxicity against human DMS114 cells; format: functional
SK-MEL-5 = experiment: Cytotoxicity against human SK-MEL-5 cells; format: functional
SW-620 = experiment: Cytotoxicity against human SW620 cells; format: functional
SF-295 = experiment: Cytotoxicity against human SF295 cells; format: functional
RPMI-8226 = experiment: Cytotoxicity against human RPMI8226 cells; format: functional, cell-based
HL-60(TB) = experiment: Cytotoxicity against human HL-60(TB) cells; format: functional, cell-based
SK-OV-3 = experiment: Cytotoxicity against human SKOV3 cells; format: functional
DLD-1 = experiment: Cytotoxicity against human DLD1 cells; format: functional
HCT-15 = experiment: Cytotoxicity against human HCT15 cells; format: functional
RXF 393 = experiment: Cytotoxicity against human RXF393 cells; format: functional
ACHN = experiment: Cytotoxicity against human ACHN cells; format: functional
HOP-92 = experiment: Cytotoxicity against human HOP92 cells; format: functional
CCRF-CEM = experiment: Cytotoxicity against human CCRF-CEM cells; format: functional, cell-based
SNB-75 = experiment: Cytotoxicity against human SNB75 cells; format: functional
SN12C = experiment: Cytotoxicity against human SN12C cells; format: functional
MOLT-4 = experiment: Cytotoxicity against human MOLT4 cells; format: functional, cell-based
SK-MEL-2 = experiment: Cytotoxicity against human SK-MEL-2 cells; format: functional
[2] = molecular target: Tyrosine-protein kinase Lck (Homo sapiens, UniProt P06239)
Chain of Tyrosine-protein kinase Lck (P06239 whole entry): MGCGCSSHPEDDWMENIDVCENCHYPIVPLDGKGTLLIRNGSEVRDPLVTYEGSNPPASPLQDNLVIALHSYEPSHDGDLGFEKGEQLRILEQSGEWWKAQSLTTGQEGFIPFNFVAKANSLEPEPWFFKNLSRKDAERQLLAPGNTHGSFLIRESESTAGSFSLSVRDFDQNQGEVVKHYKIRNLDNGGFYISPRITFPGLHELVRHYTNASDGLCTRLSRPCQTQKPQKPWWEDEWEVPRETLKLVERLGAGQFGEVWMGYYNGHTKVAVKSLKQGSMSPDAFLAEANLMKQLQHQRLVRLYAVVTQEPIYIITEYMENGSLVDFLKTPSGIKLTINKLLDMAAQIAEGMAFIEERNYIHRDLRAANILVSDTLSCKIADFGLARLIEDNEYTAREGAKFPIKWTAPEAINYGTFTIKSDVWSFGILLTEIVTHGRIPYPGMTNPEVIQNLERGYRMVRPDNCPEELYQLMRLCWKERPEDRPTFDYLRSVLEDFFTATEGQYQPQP

Malme-3M = experiment: Cytotoxicity against human MALME-3M cells; format: functional
[3] = Cytotoxicity against human RXF631 cells; format: functional
A549 = experiment: Cytotoxicity against human A549 cells; format: functional
LOX IMVI = experiment: Cytotoxicity against human LOXIMVI cells; format: functional
KM12 = experiment: Cytotoxicity against human KM12 cells; format: functional
[4] = Cytotoxicity against human 786-O cells; format: functional
OVCAR-4 = experiment: Cytotoxicity against human OVCAR4 cells; format: functional
DMS-273 = experiment: Cytotoxicity against human DMS273 cells; format: functional
HT-29 = experiment: Cytotoxicity against human HT-29 cells; format: functional
M14 = experiment: Cytotoxicity against human M14 cells; format: functional
NRK = experiment: Growth inhibition of Rous sarcoma virus-transformed rat NRK cells; format: cell-based
[5] = molecular target: Proto-oncogene tyrosine-protein kinase Src (Homo sapiens, UniProt P12931); experiment: Inhibition of p60 src
Chain of Proto-oncogene tyrosine-protein kinase Src (P12931 2-536 limits assumed): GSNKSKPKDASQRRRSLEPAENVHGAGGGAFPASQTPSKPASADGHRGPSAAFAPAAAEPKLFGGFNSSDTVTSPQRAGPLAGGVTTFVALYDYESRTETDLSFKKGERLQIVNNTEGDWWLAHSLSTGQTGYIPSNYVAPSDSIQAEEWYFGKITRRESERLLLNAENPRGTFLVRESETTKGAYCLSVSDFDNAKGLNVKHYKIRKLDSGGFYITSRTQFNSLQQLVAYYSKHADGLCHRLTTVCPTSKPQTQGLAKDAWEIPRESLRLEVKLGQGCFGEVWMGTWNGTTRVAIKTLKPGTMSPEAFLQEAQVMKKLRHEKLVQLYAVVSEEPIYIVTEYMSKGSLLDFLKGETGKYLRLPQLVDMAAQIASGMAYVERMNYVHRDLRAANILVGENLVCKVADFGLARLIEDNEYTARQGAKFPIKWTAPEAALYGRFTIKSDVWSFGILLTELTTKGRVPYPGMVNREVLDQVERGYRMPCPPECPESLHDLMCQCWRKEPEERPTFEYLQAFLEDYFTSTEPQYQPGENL

[6] = read-out: Log10GI50 (converted)
[7] = read-out: Log10LC50 (converted)

Cc1cc(O)c2c(c1)C(=O)c1cc(O)cc(O)c1C2=O [EMODIN]
GI50 (A498; [6]): 16.6 µM | CC50 (A498; [7]): > 100 µM | GI50 (NCI-H23; NCI-H23, read-out: Log10GI50 (converted)): 14.5 µM | CC50 (NCI-H23; NCI-H23, read-out: Log10LC50 (converted)): > 100 µM | GI50 (NCI-H322M; [6]): 35.5 µM | CC50 (NCI-H322M; [7]): > 100 µM | GI50 (SNB-19; [6]): 30.2 µM | CC50 (SNB-19; [7]): > 100 µM | GI50 (SF-268; [6]): 25.7 µM | CC50 (SF-268; [7]): > 100 µM | GI50 (COLO 205; [6]): 17.8 µM | CC50 (COLO 205; [7]): 100 µM | GI50 (CAKI-1; [6]): 45.7 µM | CC50 (CAKI-1; [7]): > 100 µM | GI50 [1, 6]: 24.5 µM | CC50 [1, 7]: > 100 µM | GI50 (OVCAR-5; [6]): 38 µM | CC50 (OVCAR-5; [7]): > 100 µM | GI50 (SK-MEL-28; [6]): 36.3 µM | CC50 (SK-MEL-28; [7]): > 100 µM | GI50 (HCT-116; [6]): 36.3 µM | CC50 (HCT-116; [7]): > 100 µM | GI50 (UACC-257; [6]): 28.2 µM | CC50 (UACC-257; [7]): > 100 µM | GI50 (TK-10; [6]): 23.4 µM | CC50 (TK-10; [7]): 97.7 µM | GI50 (KM-20L2; [6]): 40.7 µM | CC50 (KM-20L2; [7]): > 100 µM | GI50 (NCI-H522; [6]): 14.5 µM | CC50 (NCI-H522; [7]): > 100 µM | GI50 (SR; [6]): 23.4 µM | CC50 (SR; [7]): > 100 µM | GI50 (HOP-62; [6]): 8.13 µM | CC50 (HOP-62; [7]): > 100 µM | GI50 (HOP-18; [6]): 3.98 µM | CC50 (HOP-18; [7]): > 100 µM | GI50 (NCI-H226; [6]): 33.1 µM | CC50 (NCI-H226; [7]): > 100 µM | GI50 (NCI-H460; [6]): 20 µM | CC50 (NCI-H460; [7]): > 100 µM | GI50 (HCC 2998; [6]): 32.4 µM | CC50 (HCC 2998; [7]): > 100 µM | GI50 (SNB-78; [6]): 49 µM | CC50 (SNB-78; [7]): 100 µM | GI50 (U-251; [6]): 27.5 µM | CC50 (U-251; [7]): > 100 µM | GI50 (XF498; [6]): 26.3 µM | CC50 (XF498; [7]): > 100 µM | GI50 (DMS-114; [6]): 40.7 µM | CC50 (DMS-114; [7]): > 100 µM | GI50 (SK-MEL-5; [6]): 2.63 µM | CC50 (SK-MEL-5; [7]): 51.3 µM | GI50 (SW-620; [6]): 23.4 µM | CC50 (SW-620; [7]): > 100 µM | GI50 (SF-295; [6]): 28.2 µM | CC50 (SF-295; [7]): > 100 µM | GI50 (RPMI-8226; [6]): 24.5 µM | CC50 (RPMI-8226; [7]): > 100 µM | GI50 (HL-60(TB); [6]): 26.9 µM | CC50 (HL-60(TB); [7]): > 100 µM | GI50 (SK-OV-3; [6]): 23.4 µM | CC50 (SK-OV-3; [7]): > 100 µM | GI50 (DLD-1; [6]): 23.4 µM | CC50 (DLD-1; [7]): > 100 µM | GI50 (HCT-15; [6]): 26.9 µM | CC50 (HCT-15; [7]): > 100 µM | GI50 (RXF 393; [6]): 38.9 µM | CC50 (RXF 393; [7]): > 100 µM | GI50 (ACHN; [6]): 19.1 µM | CC50 (ACHN; [7]): > 100 µM | GI50 (HOP-92; [6]): 11.5 µM | CC50 (HOP-92; [7]): > 100 µM | GI50 (CCRF-CEM; [6]): 38 µM | CC50 (CCRF-CEM; [7]): > 100 µM | GI50 (SNB-75; [6]): 25.7 µM | CC50 (SNB-75; [7]): > 100 µM | GI50 (SN12C; [6]): 67.6 µM | CC50 (SN12C; [7]): > 100 µM | GI50 (MOLT-4; [6]): 32.4 µM | CC50 (MOLT-4; [7]): > 100 µM | GI50 (SK-MEL-2; [6]): 20.4 µM | CC50 (SK-MEL-2; [7]): > 100 µM | IC50 [2]: 18.5 µM | GI50 (Malme-3M; [6]): 11.7 µM | CC50 (Malme-3M; [7]): > 100 µM | GI50 ([3]; RXF 631, read-out: Log10GI50 (converted)): 22.4 µM | CC50 ([3]; RXF 631, read-out: Log10LC50 (converted)): > 100 µM | GI50 (A549; [6]): 26.9 µM | CC50 (A549; [7]): > 100 µM | GI50 (LOX IMVI; [6]): 17 µM | CC50 (LOX IMVI; [7]): > 100 µM | GI50 (KM12; [6]): 26.3 µM | CC50 (KM12; [7]): > 100 µM | GI50 ([4]; 786-0, read-out: Log10GI50 (converted)): 17.4 µM | CC50 ([4]; 786-0, read-out: Log10LC50 (converted)): > 100 µM | GI50 (OVCAR-4; [6]): 30.2 µM | CC50 (OVCAR-4; [7]): > 100 µM | GI50 (DMS-273; [6]): 20 µM | CC50 (DMS-273; [7]): > 100 µM | GI50 (HT-29; [6]): 31.6 µM | CC50 (HT-29; [7]): > 100 µM | GI50 (M14; [6]): 25.1 µM | CC50 (M14; [7]): > 100 µM

O=c1c(-c2ccc(O)c(O)c2)coc2cc(O)cc(O)c12 [OROBOL]
IC50 (NRK): 4 µg/mL (≈ 14 µM)

CC(C)[C@H](NC(=O)[C@H](CCCN=C(N)N)NC(=O)[C@@H](N)CC(=O)O)C(=O)N[C@@H](Cc1ccc(O)cc1)C(=O)N[C@H](C(=O)N[C@@H](Cc1cnc[nH]1)C(=O)N1CCC[C@H]1C(=O)N[C@@H](Cc1ccccc1)C(=O)O)C(C)C [[Val5] - ANGIOTENSIN II]
Ki [5]: 700 µM

From ChEMBL document CHEMBL1150213, “Protein-tyrosine kinase inhibition: mechanism-based discovery of antitumor agents” (J Nat Prod, 1992)
